From publication PMC7305075 (Cancer Chemotherapy and Pharmacology, 2020)
Where two headings read alike, the source gives them in different places. Values belong to the compound of their own block, whether it stands above or below them.

Assays:
[1] = Plasma pharmacokinetics of paracetamol, paracetamol glucuronide and paracetamol sulphate in rats (HPLC-UV, non-compartmental); assay type: in vivo, Wistar rats; conditions: for Cmax / ka (absorption rate constant): plasma, mean ± SD (CV %)
Procedure: The experimental protocol assuming involvement of animals in this study was reviewed and approved by the Local Ethics Committee, Poznań, Poland (no 61/2017). All procedures were performed in accordance with the European Union regulations concerning the handling and use of laboratory animals. Adult male Wistar rats (weight 480–530 g) were used in the study. The animals were maintained under standard breeding conditions with a 12/12 h light–dark cycle (lights on at 06.00, lights off at 18.00) at constant room temperature (23 ± 2 °C), relative humidity of 55 ± 10% and given ad libitum access to food and water. The animals were allowed to acclimatise for a week before the beginning of the experiments. The rats were divided into three groups. […] To make sure that the animals received the entire dose of the drug, 1 mL of 10% DMSO was then administered to rinse the probe. 100 µL of blood was collected from each rat by cutting off a piece of his tail. The blood samples were collected into heparinised test tubes at the following time points: 0, 0.5, 1, 2, 3, 4, 5, 6, 7, 8, 10, 12, 24, 30, 48, 72, 96 h. […] All the blood samples were centrifuged at 2.880 g for 10 min at 4 °C.
Separation was achieved by isocratic elution of the mobile phase, comprising sodium sulphate 0.05 M pH 2.2 (adjusted with 85% orthophosphoric acid) and acetonitrile (93:7, v/v), at a flow rate of 1.0 mL/min through an BDS Hypersil® C18 column (150 mm × 4.6 mm, 5.0 μm particle size) (Thermo Electron Corporation®, Waltham, MA, USA). The total time of analysis for each run was 10 min. The column temperature was maintained at 25 °C, the UV detection wavelength was set at 254 nm and the injection volume was 50 μL. Theophylline was used as the internal standard (IS).
The maximum plasma concentration (Cmax) and the time to reach the Cmax (tmax) were derived directly from the observed plasma concentrations. The total area under the concentration–time curve (AUC) was estimated by the trapezoidal rule with extrapolation from time zero to infinity (AUC0-∞). The elimination half-life (t0.5) was estimated from ln2/kel. The apparent plasma drug clearance (Cl/F) was calculated by dividing the dose (D) by the AUC0-∞. The apparent volume of distribution (Vd/F) was estimated from D/(kel × AUC0-∞).

[2] = design: method as in PMID 26739624; conditions: ref [24], cited from earlier work
[3] = cited from earlier work
[4] = Plasma pharmacokinetics of sorafenib and sorafenib N-oxide in rats (HPLC-UV, non-compartmental); assay type: in vivo, Wistar rats; conditions: mean ± SD (CV %)
Procedure: The experimental protocol assuming involvement of animals in this study was reviewed and approved by the Local Ethics Committee, Poznań, Poland (no 61/2017). All procedures were performed in accordance with the European Union regulations concerning the handling and use of laboratory animals. Adult male Wistar rats (weight 480–530 g) were used in the study. The animals were maintained under standard breeding conditions with a 12/12 h light–dark cycle (lights on at 06.00, lights off at 18.00) at constant room temperature (23 ± 2 °C), relative humidity of 55 ± 10% and given ad libitum access to food and water. The animals were allowed to acclimatise for a week before the beginning of the experiments. The rats were divided into three groups. […] To make sure that the animals received the entire dose of the drug, 1 mL of 10% DMSO was then administered to rinse the probe. 100 µL of blood was collected from each rat by cutting off a piece of his tail. The blood samples were collected into heparinised test tubes at the following time points: 0, 0.5, 1, 2, 3, 4, 5, 6, 7, 8, 10, 12, 24, 30, 48, 72, 96 h. […]
The maximum plasma concentration (Cmax) and the time to reach the Cmax (tmax) were derived directly from the observed plasma concentrations. […] The apparent plasma drug clearance (Cl/F) was calculated by dividing the dose (D) by the AUC0-∞. […]

[5] = in vitro study; ref [42]; cited from earlier work
UGT1A1 = conditions: in vitro studies; ref [21]; cited from earlier work
UGT1A9 = conditions: cited from earlier work
[6] = cited from earlier work; remark: listed apart in the source
UGT2B15 = test system: UGT2B15; design: method as in Liu et al. [26]; conditions: in vitro, recombinant UDP-glucuronyl transferases and liver microsomes, paracetamol glucuronidation; ref Liu et al. [26]; cited from earlier work
[7] = design: method as in Karbownik et al. [36], [37]; conditions: ref Karbownik et al. [36], [37]; cited from earlier work
[8] = design: method as in Karbownik et al. [36]–[38]; conditions: in vivo; ref Karbownik et al. [36]–[38]; cited from earlier work
[9] = IS+PA group (with sorafenib) vs. IIIPA group
[10] = single oral paracetamol 100 mg/kg b.w. + sorafenib 100 mg/kg b.w. (IS+PA group)
[11] = single oral paracetamol 100 mg/kg b.w. alone (IIIPA group)
[12] = analogous dose (100 mg/kg) orally, ref Mekjaruskul et al. [35]
[13] = single dose 100 mg/kg orally, ref Pingili et al. [34]
[14] = in vitro, recombinant UDP-glucuronyl transferases and liver microsomes, paracetamol glucuronidation, ref Liu et al. [26]

decrease in AUC0-∞ [1, 9]: 42%
reduction in Cmax [1, 9]: 48%
Cmax [1, 10]: 19.83 µg/mL
Cmax [1, 11]: 38.38 µg/mL
SMILES: CC(=O)Nc1ccc(O[C@@H]2O[C@H](C(=O)O)[C@@H](O)[C@H](O)[C@H]2O)cc1 [Paracetamol glucuronide, paracetamol glucuronide]

increase in AUC0-∞ [1, 9]: 71%
increase in Cmax [1, 9]: 33%
ka (absorption rate constant) [1, 10]: 2.09 ± 1.11 h⁻¹
ka (absorption rate constant) [1, 11]: 2.35 ± 0.99 h⁻¹
SMILES: CC(=O)Nc1ccc(O)cc1 [Paracetamol]
fraction conjugated with cysteine ([2]; metabolism in the liver): 3%
fraction conjugated with glucuronic acid ([2]; metabolism in the liver): 60%
fraction conjugated with sulphuric acid ([2]; metabolism in the liver): 30%
fraction N-hydroxylated through cytochrome P-450 (CYP2E1) to NAPQI [2]: 5–10%
Cmax [3, 12]: 19.10 µg/mL
t0.5 [3, 12]: 21.29 min
tmax [3, 12]: 1.0 h
Cmax [3, 13]: 5.04 µg/mL
t0.5 [3, 13]: 266 min
tmax [3, 13]: 1.16 h

tmax [4, 10]: 15.5 h
tmax ([4]; single oral sorafenib 100 mg/kg b.w. alone (IIS group)): 16.3 h
SMILES: CNC(=O)c1cc(Oc2ccc(NC(=O)Nc3ccc(Cl)c(C(F)(F)F)c3)cc2)cc[n+]1[O-] [Sorafenib N-oxide, sorafenib N-oxide]

SMILES: CNC(=O)c1cc(Oc2ccc(NC(=O)Nc3ccc(Cl)c(C(F)(F)F)c3)cc2)ccn1 [Sorafenib]
binding to human plasma proteins [5]: 99.8%
inhibition of UGT1A1 (UGT1A1): particularly inhibits
inhibition of UGT1A9 (UGT1A9; in vitro studies, ref [21]): particularly inhibits
inhibition of UGT1A9 (UGT1A9; [14]): inhibited
Cmax ([6]; ref Wang [27]): 230.86 µg/L
tmax ([6]; ref Wang [27]): 8.14 h
Cmax ([6]; ref Wang [39]): 338 µg/L
inhibition of UGT2B15 (UGT2B15): inhibited

SMILES: Cc1nc(Nc2ncc(C(=O)Nc3c(C)cccc3Cl)s2)cc(N2CCN(CCO)CC2)n1 [dasatinib]
inhibition of UGT1A9 (UGT1A9; [14]): inhibited
inhibition of UGT2B15 (UGT2B15): inhibited

SMILES: C#Cc1cccc(Nc2ncnc3cc(OCCOC)c(OCCOC)cc23)c1 [erlotinib]
increase in AUC0-t of the TKI on co-administration with paracetamol [7]: 31%
increase in Cmax of the TKI on co-administration with paracetamol [7]: 88%
decrease of the AUC0-∞ of paracetamol after administration of the TKI [8]: 35.5%
drop of the Cmax of paracetamol after administration of the TKI [8]: 18.9%

SMILES: CS(=O)(=O)CCNCc1ccc(-c2ccc3ncnc(Nc4ccc(OCc5cccc(F)c5)c(Cl)c4)c3c2)o1 [lapatinib]
increase in AUC0-t of the TKI on co-administration with paracetamol [7]: 240%
increase in Cmax of the TKI on co-administration with paracetamol [7]: 184%
decrease of the AUC0-∞ of paracetamol after administration of the TKI [8]: 48.8%
drop of the Cmax of paracetamol after administration of the TKI [8]: 55.7%

SMILES: CCN(CC)CCNC(=O)c1c(C)[nH]c(/C=C2\C(=O)Nc3ccc(F)cc32)c1C [sunitinib]
decrease of the AUC0-∞ of paracetamol after administration of the TKI [8]: 68.19%
drop of the Cmax of paracetamol after administration of the TKI [8]: 63.95%
